The test system of test [1] is diamondback moth (Plutella xylostella) and cabbage cluster caterpillar (Crocidolomia pavonana) known to be resistant to chlorantraniliprole. As to the kind of experiment: Example 5 cabbage plot study, yield under chlorantraniliprole-resistant pest infestation. The following applies: rate 30.9 g/ha; cabbage plots. Format: in vivo, Plutella xylostella; Crocidolomia pavonana (on cabbage). As to the method:
(§1) A study was conducted to determine the effect that a synergistic weight ratio of Bacillus thuringiensis subsp. kurstaki and Bacillus thuringiensis subsp. aizawai would have on insect species with known resistance to the commonly used insecticide, chlorantraniliprole. Prevathon™ (available from DuPont™) is a 5% suspension concentrate of chlorantraniliprole and was used as the source of chlorantraniliprole in the following two studies. Sympatico™ emulsifiable suspension concentrate (available from Valent BioSciences Corporation) was used as the source of Bacillus thuringiensis subsp. aizawai and Bacillus thuringiensis kurstaki. Sympatico™ contains about a 60:40 weight ratio of Bacillus thuringiensis subsp. kurstaki fermentation solids, spores and toxins to Bacillus thuringiensis subsp. aizawai fermentation solids, spores and toxins. The plots were planted with cabbage and naturally infested with populations of diamondback moth (Plutella xylostella) and cabbage cluster caterpillar (Crocidolomia pavonana) that were known to be resistant to chlorantraniliprole.

Test [2] deals with insect species with known resistance to chlorantraniliprole. As to the kind of experiment: Example 6 plot study, yield with insect species resistant to chlorantraniliprole. Format: in vivo. To be noted: rate 30.9 g a.i/ha. The method, then:
as §1
Another study was conducted to determine the effect that a synergistic weight ratio of Bacillus thuringiensis subsp. kurstaki and Bacillus thuringiensis subsp. aizawai would have on insect species with known resistance to the commonly used insecticide, chlorantraniliprole.

In the case of `CNC(=O)c1cc(Cl)cc(C)c1NC(=O)c1cc(Br)nn1-c1ncccc1Cl` [Chlorantraniliprole], the figures for the Yield in test [1] and in test [2] were 67.0 kg/plot and 88.3 kg/plot, respectively.

Source of the values: patent publication US20190008160A1, “BACILLUS THURINGIENSIS SUBSP. KURSTAKI AND BACILLUS THURINGIENSIS SUBSP. AIZAWAI COMBINATION FORMULATIONS” (Valent BioSciences Corporation, priority 2015, published 2019).
